Data on five compounds can be found in patent publication US20080210128A1, “Optical Layer including mu-oxo-bridged boron-subphthalocyanine dimer” (ORIENT CHEMICAL INDUSTRIES, LTD., priority 2007, published 2008).

Data set [1] is described as follows: Solubility in methyl ethyl ketone. The source says:
Incidentally, a spectral photometer of UV-1700 available from Shimadzu Corporation was used.

A short description of data set [2]: Absorption spectrum in chloroform (spectral photometer UV-1700). In kind it is physicochemical.
The nature of data set [3]: Dissolution of colorant on preparing the coating agent. In kind it is physicochemical. The following applies: 0.5 parts by weight colorant in methyl ethyl ketone / cyclohexanone with polymethacrylate. On the procedure: 0.1 parts by weight of the Compound obtained in the Manufacturing Example 1 and 15 parts by weigh of polymethacrylate were mixed and dissolved into 50 parts by weight of methyl ethyl ketone and 35 parts by weight of cyclohexanone by stirring, and liquid coating agent was prepared.
In Comparative Example 2, a thin layer was prepared by the same procedures as Example 1 except for using a coating agent prepared by using Intermediate Compound A-1 obtained in Manufacturing Example 1 instead of using Compound 1 used in Example 1. Incidentally, the additive amount of colorant to prepare a coating agent was changed to 0.5 parts by weight. […] Therefore, a coating agent was obtained as dispersion.

Values after ≈ are worked out from the molar mass of the structure shown. Where two headings read alike, the source gives them in different places.

By Solubility is commonly meant how much of the substance goes into solution per volume. A higher Solubility goes with a readily soluble substance. As to `c1ccc2c(c1)C1=Nc3c4ccccc4c4n3[B-]3(O[B-]56n7c8c9ccccc9c7N=c7c9ccccc9c(n75)=NC5=[N+]6C(=N8)c6ccccc65)n5c(c6ccccc6c5=N4)=NC2=[N+]13` (stereo not drawn) [Compound 1, (SubPcB)2O], the Solubility in data set [1] (solvent: methyl ethyl ketone) was 1.14 g/L (≈ 1410 µM). In data set [2], the maximum absorption wavelength amounted to 532 nm and the molar absorption coefficient turned out to be 106000 dm^3mol^−1cm^−1.
In data set [1], `ClB1n2c3c4ccccc4c2N=c2c4ccccc4c(n21)=NC1=NC(=N3)c2ccccc21` [Intermediate Compound A-1, SubPcBCl, reference compound] gave a Solubility of 0.025 g/L (≈ 58 µM). Moreover, in data set [2], the maximum absorption wavelength was found to be 565 nm and the molar absorption coefficient worked out at 51000 dm^3mol^−1cm^−1. The “dissolution in coating agent” value in data set [3] is listed as “did not dissolve completely”.
Regarding (t-Bu3SubPcB)2O [Compound 2], the Solubility in data set [1] (solvent: methyl ethyl ketone) worked out at 58.5 g/L. Also, in data set [2], the maximum absorption wavelength came to 543 nm and the molar absorption coefficient was 61000 dm^3mol^−1cm^−1.
On to “SubPcBOH [Intermediate Compound B-1, reference compound]”, for which, in data set [2], the maximum absorption wavelength turned out to be 562 nm and the molar absorption coefficient is 45000 dm^3mol^−1cm^−1.
With {(C8H17O)3SubPcB}2O [Compound 3], the Solubility in data set [1] is given as 83.2 g/L. In data set [2], the maximum absorption wavelength is reported as 543 nm and the molar absorption coefficient turned out to be 87000 dm^3mol^−1cm^−1.
